Data: patent US20240409585A1, “MACROCYCLIC IMMUNOMODULATORS” (priority 2021, published 2024)
Bridge positions count the residues as written; N and C are the ends. Square brackets hold non-standard residues; d marks the D form. Peptide text beside a SMILES is read from it. * marks the point of attachment. ξ: configuration not given here. Phe(4-(4-F-Ph)) = N[C@@H](Cc1ccc(-c2ccc(F)cc2)cc1)C(=O)O; Trp(7-Me) = Cc1cccc2c(C[C@H](N)C(=O)O)c[nH]c12; Asp(3,3-Me2) = CC(C)(C(=O)O)[C@H](N)C(=O)O; Bip = N[C@@H](Cc1ccc(-c2ccccc2)cc1)C(=O)O; Phe(4-CN) = N#Cc1ccc(C[C@H](N)C(=O)O)cc1; Phe(3-Me) = Cc1cccc(C[C@H](N)C(=O)O)c1; Bta = N[C@@H](Cc1csc2ccccc12)C(=O)O; Nva(4-oxo) = CC(=O)C[C@H](N)C(=O)O; Val(3-OH) = CC(C)(O)[C@H](N)C(=O)O; 4Pal = N[C@@H](Cc1ccncc1)C(=O)O; 3Thi = N[C@@H](Cc1ccsc1)C(=O)O; Cha = N[C@@H](CC1CCCCC1)C(=O)O; Ile(3ξ) = CCC(C)[C@H](N)C(=O)O; Thr(3ξ) = CC(O)[C@H](N)C(=O)O; dDab = NCC[C@@H](N)C(=O)O; dNva = CCC[C@@H](N)C(=O)O; Carboxymethyl = O=C(O)C*; NMeA = CN[C@@H](C)C(=O)O; Orn = NCCC[C@H](N)C(=O)O; Dab = NCC[C@H](N)C(=O)O; NH(CH2)3NH2 = NCCCN*

Biological target: T1, PE-labeled human PD-L1-Ig binding to Jurkat cell line over-expressing human PD-1 (Jurkat-PD-1) (Homo sapiens, UniProt Q15116)
T1 construct: expressed in transfected cells; host or cells: Jurkat
Experiment: Jurkat-PD-1 Cell Binding High-Content Screening Assay (CBA): Method 1
Conditions: Jurkat HPDL1 PD1 IC50 (uM) (Method 1), Jurkat-hPD-1 cells, PE-labeled PD-L1-Ig 20 nM final

T1 sequence (Q15116 25-288): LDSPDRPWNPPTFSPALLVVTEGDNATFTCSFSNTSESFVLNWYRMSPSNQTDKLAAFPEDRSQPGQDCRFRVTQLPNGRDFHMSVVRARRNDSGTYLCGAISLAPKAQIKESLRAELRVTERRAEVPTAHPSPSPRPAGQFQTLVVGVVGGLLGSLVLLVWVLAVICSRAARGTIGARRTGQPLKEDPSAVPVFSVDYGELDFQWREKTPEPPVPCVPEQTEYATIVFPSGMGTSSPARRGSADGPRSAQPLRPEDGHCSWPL

SMILES | IC50 [µM]
C=C1N[C@@H](Cc2ccccc2)C(=O)N(C)[C@@H](C)C(=O)N[C@H](CC(C)C)C(=O)N[C@@H](CC(N)=O)C(=O)N[C@@H](CC(C)C)C(=O)N[C@@H](Cc2ccccc2)C(=O)N[C@@H](CO)C(=O)N[C@H](C(=O)N[C@@H](C)C(N)=O)CSCC(=O)N[C@@H](Cc2ccc(OCC(=O)O)cc2)C(=O)N[C@@H](Cc2ccc(C(=O)O)cc2)C(=O)N[C@@H](CC(=O)O)C(=O)N[C@@H](Cc2cccc(C)c2)C(=O)N[C@@H](CC(C)C)C(=O)N[C@H]1Cc1ccc(-c2ccccc2)cc1 [Compound 1585] | 0.73

Same assay, conditions: Jurkat-hPD-1 cells, PE-labeled PD-L1-Ig 20 nM final; read-out: Jurkat HPDL1 PD1 IC50 (uM) (Method 1)

SMILES | IC50 [µM]
Cc1cccc(C[C@@H]2NC(=O)[C@H](CC(=O)O)NC(=O)[C@H](Cc3ccc(OCC(=O)O)cc3)NC(=O)[C@H](Cc3ccc(OCC(=O)O)cc3)NC(=O)CSC[C@@H](C(=O)N[C@@H](CCN)C(N)=O)NC(=O)[C@@H](CCN)NC(=O)[C@H](C(C)C)NC(=O)[C@H](CC3CCCCC3)NC(=O)[C@H](CCN)NC(=O)[C@@H](CC(C)C)NC(=O)[C@H](C)N(C)C(=O)[C@H](Cc3ccc(O)cc3)NC(=O)[C@H](Cc3ccc(-c4ccccc4)cc3)NC(=O)[C@H](Cc3ccc(O)cc3)NC2=O)c1 [Compound 1872] ({CH2CO}-Y(Carboxymethyl)Y(Carboxymethyl)D[Phe(3-Me)]Y[Bip]Y[NMeA][dL][Dab][Cha]V[dDab]C[Dab]-NH2; thioether N-14) | 0.02
CC(C)C[C@@H]1NC(=O)[C@H](CCCN)NC(=O)[C@@H](CC(C)C)NC(=O)[C@H](C)N(C)C(=O)[C@H](CCCNC(=N)N)NC(=O)[C@H](Cc2ccc(-c3ccccc3)cc2)NC(=O)[C@H](C(C)C)NC(=O)[C@H](Cc2c[nH]c3ccccc23)NC(=O)[C@H](CC(=O)O)NC(=O)[C@H](Cc2cnc[nH]2)NC(=O)[C@H](Cc2cnc[nH]2)NC(=O)CSC[C@@H](C(=O)N[C@@H](C)C(N)=O)NC(=O)[C@H]([C@@H](C)O)NC(=O)[C@H](C(C)C)NC1=O [Compound 1136] ({CH2CO}-HHDWV[Bip]R[NMeA][dL][Orn]LVTCA-NH2; thioether N-14) | 0.21
CC(C)C[C@@H]1NC(=O)[C@H](CCCNC(=N)N)NC(=O)[C@@H](CC(C)C)NC(=O)[C@H](C)N(C)C(=O)[C@H](CCCNC(=N)N)NC(=O)[C@H](Cc2ccc(-c3ccccc3)cc2)NC(=O)[C@H](C(C)C)NC(=O)[C@H](Cc2c[nH]c3ccccc23)NC(=O)[C@H](CC(=O)O)NC(=O)[C@H](Cc2ccc(O)cc2)NC(=O)[C@H](Cc2ccccc2)NC(=O)CSC[C@@H](C(=O)NCC(N)=O)NC(=O)[C@H](CO)NC(=O)[C@H](C(C)C)NC1=O [Compound 1017] ({CH2CO}-FYDWV[Bip]R[NMeA][dL]RLVSCG-NH2; thioether N-14) | 0.04
CC(=O)C[C@@H]1NC(=O)CSC[C@@H](C(=O)NCC(N)=O)NC(=O)[C@H](CO)NC(=O)[C@H](C(C)C)NC(=O)[C@H](CC(C)C)NC(=O)[C@H](CCCNC(=N)N)NC(=O)[C@H](Cc2csc3ccccc23)NC(=O)[C@H](C)N(C)C(=O)[C@H](CCCNC(=N)N)NC(=O)[C@H](Cc2ccc(-c3ccccc3)cc2)NC(=O)[C@H](C(C)C)NC(=O)[C@H](Cc2c[nH]c3ccccc23)NC(=O)[C@H](CC(=O)O)NC(=O)[C@H](Cc2ccc(O)cc2)NC1=O [Compound 1027] ({CH2CO}-[Nva(4-oxo)]YDWV[Bip]R[NMeA][Bta]RLVSCG-NH2; thioether N-14) | 0.21
CC(C)C[C@@H]1NC(=O)[C@H](Cc2c[nH]c3ccccc23)NC(=O)[C@H](CC(=O)O)NC(=O)[C@H](Cc2ccc(O)cc2)NC(=O)[C@H](Cc2ccccc2)NC(=O)CSC[C@@H](C(=O)NCC(N)=O)NC(=O)[C@H](CO)NC(=O)[C@H](C(C)C)NC(=O)[C@H](CC(C)C)NC(=O)[C@H](CC(N)=O)NC(=O)[C@H](CCN)NC(=O)[C@H](C)N(C)C(=O)[C@H](C(C)C)NC(=O)[C@H](Cc2ccc(-c3ccccc3)cc2)NC1=O [Compound 1795] ({CH2CO}-FYDWL[Bip]V[NMeA][Dab]NLVSCG-NH2; thioether N-14) | 0.16
CCC(C)[C@@H]1NC(=O)[C@H](Cc2ccc(-c3ccccc3)cc2)NC(=O)[C@H](C(C)C)NC(=O)[C@H](Cc2c[nH]c3ccccc23)NC(=O)[C@H](CC(=O)O)NC(=O)[C@H](Cc2ccc(O)cc2)NC(=O)[C@H](Cc2ccsc2)NC(=O)CSC[C@@H](C(=O)NCCCN)NC(=O)[C@H](C(C)O)NC(=O)[C@H](C(C)(C)O)NC(=O)[C@H](CC2CCCCC2)NC(=O)[C@H](CC(N)=O)NC(=O)[C@@H](CC(C)C)NC(=O)[C@H](C)N(C)C1=O (stereo partly drawn) [Compound 2247] ({CH2CO}-[3Thi]YDWV[Bip][Ile(3ξ)][NMeA][dL]N[Cha][Val(3-OH)][Thr(3ξ)]C-{NH(CH2)3NH2}; thioether N-14) | 0.06
CC(C)C[C@@H]1NC(=O)[C@H](CCCNC(=N)N)NC(=O)[C@@H](CC(C)C)NC(=O)[C@H](C)N(C)C(=O)[C@H](CCC(=O)O)NC(=O)[C@H](Cc2ccc(-c3ccccc3)cc2)NC(=O)[C@H](C(C)C)NC(=O)[C@H](Cc2c[nH]c3ccccc23)NC(=O)[C@H](CC(=O)O)NC(=O)[C@H](Cc2ccc(O)cc2)NC(=O)[C@H](Cc2ccccc2)NC(=O)CSC[C@@H](C(=O)N[C@@H](C)C(N)=O)NC(=O)[C@H]([C@@H](C)O)NC(=O)[C@H](C(C)C)NC1=O [Compound 1141] ({CH2CO}-FYDWV[Bip]E[NMeA][dL]RLVTCA-NH2; thioether N-14) | 0.04
CCC[C@H]1NC(=O)[C@H](C)N(C)C(=O)[C@H](C(C)C)NC(=O)[C@H](Cc2ccc(-c3ccccc3)cc2)NC(=O)[C@H](CC(C)C)NC(=O)[C@H](Cc2c[nH]c3ccccc23)NC(=O)[C@H](CC(=O)O)NC(=O)[C@H](Cc2ccc(O)cc2)NC(=O)[C@H](Cc2ccccc2)NC(=O)CSC[C@@H](C(=O)N[C@@H](C)C(N)=O)NC(=O)[C@H](CO)NC(=O)[C@H](C(C)C)NC(=O)[C@H](CC(C)C)NC(=O)[C@H](CC(N)=O)NC1=O [Compound 1755] ({CH2CO}-FYDWL[Bip]V[NMeA][dNva]NLVSCA-NH2; thioether N-14) | 0.03
CC(C)C[C@@H]1NC(=O)[C@H](Cc2c[nH]c3ccccc23)NC(=O)[C@H](CC(=O)O)NC(=O)[C@H](Cc2ccc(C#N)cc2)NC(=O)[C@H](CC(N)=O)NC(=O)CSC[C@@H](C(=O)NCC(N)=O)NC(=O)[C@H](CO)NC(=O)[C@H](C(C)C)NC(=O)[C@H](CC(C)C)NC(=O)[C@H](CC(N)=O)NC(=O)[C@@H](CC(C)C)NC(=O)[C@H](C)N(C)C(=O)[C@H](C(C)C)NC(=O)[C@H](Cc2ccc(-c3ccccc3)cc2)NC1=O [Compound 1527] ({CH2CO}-N[Phe(4-CN)]DWL[Bip]V[NMeA][dL]NLVSCG-NH2; thioether N-14) | 0.01
Cc1cccc2c(C[C@@H]3NC(=O)[C@H](CC(=O)O)NC(=O)[C@H](Cc4ccc(O)cc4)NC(=O)[C@H](Cc4ccccc4)NC(=O)CSC[C@@H](C(=O)N[C@@H](C)C(N)=O)NC(=O)[C@H](CO)NC(=O)[C@H](C(C)C)NC(=O)[C@H](CC(C)C)NC(=O)[C@H](CC(N)=O)NC(=O)[C@@H](C)NC(=O)[C@H](C)N(C)C(=O)[C@H](C(C)C)NC(=O)[C@H](Cc4ccc(-c5ccccc5)cc4)NC(=O)[C@H](CC(C)C)NC3=O)c[nH]c12 [Compound 1796] ({CH2CO}-FYD[Trp(7-Me)]L[Bip]V[NMeA][dA]NLVSCA-NH2; thioether N-14) | 0.16
CC(C)C[C@@H]1NC(=O)[C@H](CCN)NC(=O)[C@@H](CC(C)C)NC(=O)[C@H](C)N(C)C(=O)[C@H](CCCNC(=N)N)NC(=O)[C@H](Cc2ccc(-c3ccc(F)cc3)cc2)NC(=O)[C@H](C(C)C)NC(=O)[C@H](Cc2c[nH]c3ccccc23)NC(=O)[C@H](CC(=O)O)NC(=O)[C@H](Cc2ccc(O)cc2)NC(=O)[C@H](CC(N)=O)NC(=O)CSC[C@@H](C(=O)N[C@@H](C)C(N)=O)NC(=O)[C@H]([C@@H](C)O)NC(=O)[C@H](C(C)C)NC1=O [Compound 1229] ({CH2CO}-NYDWV[Phe(4-(4-F-Ph))]R[NMeA][dL][Dab]LVTCA-NH2; thioether N-14) | 0.13
Cc1cccc(C[C@@H]2NC(=O)[C@H](CC(=O)O)NC(=O)[C@H](Cc3ccc(OCC(=O)O)cc3)NC(=O)[C@H](CCN)NC(=O)CSC[C@@H](C(=O)N[C@H](C(N)=O)C(C)(C)C(=O)O)NC(=O)[C@H](CO)NC(=O)[C@H](C(C)(C)O)NC(=O)[C@H](CC3CCCCC3)NC(=O)[C@H](CCN)NC(=O)[C@@H](CC(C)C)NC(=O)[C@H](C)N(C)C(=O)[C@H](Cc3ccc(OCC(=O)O)cc3)NC(=O)[C@H](Cc3ccc(-c4ccccc4)cc3)NC(=O)[C@H](Cc3ccc(OCC(=O)O)cc3)NC2=O)c1 [Compound 1847] ({CH2CO}-[Dab]Y(Carboxymethyl)D[Phe(3-Me)]Y(Carboxymethyl)[Bip]Y(Carboxymethyl)[NMeA][dL][Dab][Cha][Val(3-OH)]SC[Asp(3,3-Me2)]-NH2; thioether N-14) | 0.7
CCC(C)[C@@H]1NC(=O)[C@H](Cc2ccc(-c3ccccc3)cc2)NC(=O)[C@H](C(C)C)NC(=O)[C@H](Cc2c[nH]c3ccccc23)NC(=O)[C@H](CC(=O)O)NC(=O)[C@H](Cc2ccc(OCC(=O)O)cc2)NC(=O)[C@H](C(C)O)NC(=O)CSC[C@@H](C(=O)N[C@H](CC(N)=O)C(N)=O)NC(=O)[C@H](CO)NC(=O)[C@H](C(C)(C)O)NC(=O)[C@H](CC2CCCCC2)NC(=O)[C@H](CCN)NC(=O)[C@@H](CC(C)C)NC(=O)[C@H](C)N(C)C1=O (stereo partly drawn) [Compound 2141] ({CH2CO}-[Thr(3ξ)]Y(Carboxymethyl)DWV[Bip][Ile(3ξ)][NMeA][dL][Dab][Cha][Val(3-OH)]SC[dN]-NH2; thioether N-14) | 0.02
Cc1cccc(C[C@@H]2NC(=O)[C@H](CC(=O)O)NC(=O)[C@H](Cc3ccncc3)NC(=O)[C@H](Cc3ccc(OCC(=O)O)cc3)NC(=O)CSC[C@@H](C(N)=O)NC(=O)[C@H](CO)NC(=O)[C@H](C(C)C)NC(=O)[C@H](CC(C)C)NC(=O)[C@H](CC(N)=O)NC(=O)[C@@H](CC(C)C)NC(=O)[C@H](C)N(C)C(=O)[C@H](C(C)C)NC(=O)[C@H](Cc3ccc(-c4ccccc4)cc3)NC(=O)[C@H](CC(C)C)NC2=O)c1 [Compound 1595] ({CH2CO}-Y(Carboxymethyl)[4Pal]D[Phe(3-Me)]L[Bip]V[NMeA][dL]NLVSC-NH2; thioether N-14) | 0.01
